Experimental data as given in US6461997B1, “Triazole sulfones having herbicidal activity” (Monsanto Technology LLC, priority 1999, dated 2002).

Tested on: VERPE (creeping speedwell)
Assay: Pre-emergence herbicidal activity, cool season
Type: in vivo, Veronica persicaria
Conditions: lowest tested rate with 80% or greater inhibition; rates 300, 100, 30, 10 g/ha; about 14 days
Summary of the method: (§1)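 GR80 values derive from percent inhibition relative to untreated plants, read roughly 14 days after sowing and pre-emergence soil-surface treatment (compound in 50:50 acetone/water; rates typically 10, 30, 100, 300 g/ha). Warm-season weeds grew at 30/21° C day/night, cool-season ones at 18/13° C; an asterisk marks activity without reaching 80% at the highest rate.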

Row | Compound | Pre-emergence activity GR80, VERPE [g/ha]
1 | CON(C)C(=O)n1cnc(S(=O)(=O)C(F)F)n1 [Example 34] | 300
2 | CCCN(CC)C(=O)n1cnc(S(=O)(=O)C(F)(F)C(F)(F)Br)n1 [Example 75] | 10

Tested on: LOLMG (annual ryegrass)
Assay: Pre-emergence herbicidal activity, cool season
Type: in vivo, Lolium multiflorum
Conditions: GR80 = lowest tested rate (300, 100, 30, 10 g/ha) with 80% or greater inhibition; approx. 14 days after treating; 18/13° C.
Procedure: (§2) Tables 5 to 8 summarize results of tests conducted as described below to determine the pre-emergence herbicidal activity, in the form of a GR80 value, of illustrative compounds of this invention. […] Compounds of the invention were typically applied at rates of 300, 100, 30, and 10 g/ha. Where herbicidal activity was evident but 80% inhibition was not achieved at the highest rate tested, an asterisk (*) is shown in the following tables.
(§3) The pre-emergence tests were conducted by the following procedure. Topsoil was sieved to pass through a 1.27 cm screen. Fertilizer was added to the topsoil and the mixture was then sterilized by heating. The topsoil mixture was placed in a pot and compacted to a depth of 1.0 to 1.25 cm from the top of the pot. Seeds of each of several monocotyledonous and dicotyledonous annual plant species were placed on top of the soil. Additional soil was subsequently placed over the seeds to level-fill the pot. A known amount of each test compound dissolved or suspended in an appropriate organic solvent was diluted with a 50:50 mix of acetone and water and applied to the surface of the soil. After treatment the plants were placed in a greenhouse where they received 0.64 cm of overhead irrigation. All subsequent watering consisted of a light overhead mist and/or subirrigation as needed for germination and growth. Tables 5 and 6 below relate to warm season plant species which were placed after pre-emergence treatment in a greenhouse with a 30/21° C. day/night temperature regime. Tables 7 and 8 below relates to cool season plant species placed after pre-emergence treatment in a greenhouse or growth chamber with an 18/13° C. day/night temperature regime.
(§4) Approximately 14 days after planting and treating, the plants were observed and herbicidal efficacy recorded as percent inhibition by comparison with untreated plants.
(§5) The plant species usually regarded as weeds which were utilized in the tests are identified in the tables below according to the following legend, in which “d” indicates a dicotyledonous species and “m” a monocotyledonous species. All monocotyledonous species included in the tests herein are grasses.

Row | Compound | Pre-emergence activity (GR80) LOLMG [g/ha]
3 | CCCN(CC)C(=O)n1cnc(S(=O)(=O)C(F)(F)C(F)(F)Br)n1 [Example 75] | 300

Tested on: SINAR (wild mustard)
Assay: Pre-emergence herbicidal activity, cool season
Type: in vivo, Sinapis arvensis
Conditions: lowest tested rate with 80% or greater inhibition; rates 300, 100, 30, 10 g/ha; about 14 days
Summary of the method: as §1

Row | Compound | Pre-emergence activity GR80, SINAR [g/ha]
4 | CON(C)C(=O)n1cnc(S(=O)(=O)C(F)F)n1 [Example 34] | 300
5 | CCCN(CC)C(=O)n1cnc(S(=O)(=O)C(F)(F)C(F)(F)Br)n1 [Example 75] | 30

Tested on: POLCO (wild buckwheat)
Assay: Pre-emergence herbicidal activity, cool season
Type: in vivo, Polygonum convolvulus
Conditions: lowest tested rate with 80% or greater inhibition; rates 300, 100, 30, 10 g/ha; about 14 days
Summary of the method: (§6)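 GR80 values, pre-emergence, soil applied at 300, 100, 30, 10 g/ha. Warm regime 30/21 °C: PANMI, DIGSA. Cool regime 18/13 °C: ALOMY, POLCO. Rating ~14 d, % inhibition vs untreated.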

Row | Compound | Pre-emergence activity GR80, POLCO
6 | CON(C)C(=O)n1cnc(S(=O)(=O)C(F)F)n1 [Example 34] | 300 g/ha
7 | CCCN(CC)C(=O)n1cnc(S(=O)(=O)C(F)(F)C(F)(F)Br)n1 [Example 75] | [empty]

Tested on: AGSST (creeping bentgrass)
Assay: Pre-emergence herbicidal activity, cool season
Type: in vivo, Agrostis stolonifera
Conditions: GR80 = lowest tested rate (300, 100, 30, 10 g/ha) with 80% or greater inhibition; approx. 14 days after treating; 18/13° C.
Summary of the method: as §1

Row | Compound | Pre-emergence activity (GR80) AGSST [g/ha]
8 | CCCN(CC)C(=O)n1cnc(S(=O)(=O)C(F)(F)C(F)(F)Br)n1 [Example 75] | 30

Tested on: SORVU (shattercane)
Assay: Pre-emergence herbicidal activity, warm season
Type: in vivo, Sorghum vulgare
Conditions: GR80 = lowest tested rate (300, 100, 30, 10 g/ha) with 80% or greater inhibition; approx. 14 days after treating; 30/21° C.
Procedure: as §2, §3, §4, §5

Row | Compound | Pre-emergence activity (GR80) SORVU [g/ha]
9 | CCCN(CC)C(=O)n1cnc(S(=O)(=O)C(F)(F)C(F)(F)Br)n1 [Example 75] | 300

Tested on: CHEAL (common lambsquarters)
Assay: Pre-emergence herbicidal activity, warm season
Type: in vivo, Chenopodium album
Conditions: GR80 = lowest tested rate (300, 100, 30, 10 g/ha) with 80% or greater inhibition; approx. 14 days after treating; 30/21° C.
Summary of the method: as §1

Row | Compound | Pre-emergence activity (GR80) CHEAL [g/ha]
10 | CCCN(CC)C(=O)n1cnc(S(=O)(=O)C(F)(F)C(F)(F)Br)n1 [Example 75] | 300

Tested on: SORHA (johnsongrass (seedling))
Assay: Pre-emergence herbicidal activity, warm season
Type: in vivo, Sorghum halepense
Conditions: GR80 = lowest tested rate (300, 100, 30, 10 g/ha) with 80% or greater inhibition; approx. 14 days after treating; 30/21° C.
Summary of the method: (§7)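 Activity is expressed as the rate giving 80% inhibition, with 300, 100, 30 and 10 g/ha typically tested. An asterisk marks activity short of 80% at the top rate. Warm-season grasses were held at 30/21 °C; cool-season blackgrass and wild buckwheat at 18/13 °C; scoring at about 14 days.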

Row | Compound | Pre-emergence activity (GR80) SORHA [g/ha]
11 | CCCN(CC)C(=O)n1cnc(S(=O)(=O)C(F)(F)C(F)(F)Br)n1 [Example 75] | 300

Tested on: LAMPU (purple deadnettle)
Assay: Pre-emergence herbicidal activity, cool season
Type: in vivo, Lamium purpureum
Conditions: lowest tested rate with 80% or greater inhibition; rates 300, 100, 30, 10 g/ha; about 14 days
Summary of the method: as §1

Row | Compound | Pre-emergence activity GR80, LAMPU [g/ha]
12 | CON(C)C(=O)n1cnc(S(=O)(=O)C(F)F)n1 [Example 34] | 300
13 | CCCN(CC)C(=O)n1cnc(S(=O)(=O)C(F)(F)C(F)(F)Br)n1 [Example 75] | 30

Tested on: BRAPP (broadleaf signalgrass)
Assay: Pre-emergence herbicidal activity, warm season
Type: in vivo, Brachiaria platyphylla
Conditions: GR80 = lowest tested rate (300, 100, 30, 10 g/ha) with 80% or greater inhibition; approx. 14 days after treating; 30/21° C.
Summary of the method: as §7

Row | Compound | Pre-emergence activity (GR80) BRAPP [g/ha]
14 | CCCN(CC)C(=O)n1cnc(S(=O)(=O)C(F)(F)C(F)(F)Br)n1 [Example 75] | 300

Tested on: STEME (common chickweed)
Assay: Pre-emergence herbicidal activity, cool season
Type: in vivo, Stellaria media
Conditions: lowest tested rate with 80% or greater inhibition; rates 300, 100, 30, 10 g/ha; about 14 days
Summary of the method: as §1

Row | Compound | Pre-emergence activity GR80, STEME
15 | CON(C)C(=O)n1cnc(S(=O)(=O)C(F)F)n1 [Example 34] | [empty]
16 | CCCN(CC)C(=O)n1cnc(S(=O)(=O)C(F)(F)C(F)(F)Br)n1 [Example 75] | 30 g/ha

Tested on: SASKR (russian thistle)
Assay: Pre-emergence herbicidal activity, cool season
Type: in vivo, Salsola kali
Conditions: lowest tested rate with 80% or greater inhibition; rates 300, 100, 30, 10 g/ha; about 14 days
Summary of the method: as §1

Row | Compound | Pre-emergence activity GR80, SASKR [g/ha]
17 | CON(C)C(=O)n1cnc(S(=O)(=O)C(F)F)n1 [Example 34] | 300
18 | CCCN(CC)C(=O)n1cnc(S(=O)(=O)C(F)(F)C(F)(F)Br)n1 [Example 75] | 10

Tested on: DIGSA (large crabgrass)
Assay: Pre-emergence herbicidal activity, warm season
Type: in vivo, Digitaria sanguinalis
Conditions: GR80 = lowest tested rate (300, 100, 30, 10 g/ha) with 80% or greater inhibition; approx. 14 days after treating; 30/21° C.
Summary of the method: as §6

Row | Compound | Pre-emergence activity (GR80) DIGSA [g/ha]
19 | CCCN(CC)C(=O)n1cnc(S(=O)(=O)C(F)(F)C(F)(F)Br)n1 [Example 75] | 300

Tested on: SETVI (green foxtail)
Assay: Pre-emergence herbicidal activity, cool season
Type: in vivo, Setaria viridis
Conditions: GR80 = lowest tested rate (300, 100, 30, 10 g/ha) with 80% or greater inhibition; approx. 14 days after treating; 18/13° C.
Summary of the method: as §1

Row | Compound | Pre-emergence activity (GR80) SETVI [g/ha]
20 | CON(C)C(=O)n1cnc(S(=O)(=O)C(F)F)n1 [Example 34] | 300
21 | CCCN(CC)C(=O)n1cnc(S(=O)(=O)C(F)(F)C(F)(F)Br)n1 [Example 75] | 30

Tested on: ECHCG (barnyardgrass)
Assay: Pre-emergence herbicidal activity, warm season
Type: in vivo, Echinochloa crus-galli
Conditions: GR80 = lowest tested rate (300, 100, 30, 10 g/ha) with 80% or greater inhibition; approx. 14 days after treating; 30/21° C.
Summary of the method: as §7

Row | Compound | Pre-emergence activity (GR80) ECHCG [g/ha]
22 | CCCN(CC)C(=O)n1cnc(S(=O)(=O)C(F)(F)C(F)(F)Br)n1 [Example 75] | 100

Tested on: POROL (common purslane)
Assay: Pre-emergence herbicidal activity, warm season
Type: in vivo, Portulaca oleracea
Conditions: GR80 = lowest tested rate (300, 100, 30, 10 g/ha) with 80% or greater inhibition; approx. 14 days after treating; 30/21° C.
Summary of the method: as §1

Row | Compound | Pre-emergence activity (GR80) POROL [g/ha]
23 | CCCN(CC)C(=O)n1cnc(S(=O)(=O)C(F)(F)C(F)(F)Br)n1 [Example 75] | 300

Tested on: SETFA (giant foxtail)
Assay: Pre-emergence herbicidal activity, warm season
Type: in vivo, Setaria faberi
Conditions: GR80 = lowest tested rate (300, 100, 30, 10 g/ha) with 80% or greater inhibition; approx. 14 days after treating; 30/21° C.
Summary of the method: as §7

Row | Compound | Pre-emergence activity (GR80) SETFA [g/ha]
24 | CCCN(CC)C(=O)n1cnc(S(=O)(=O)C(F)(F)C(F)(F)Br)n1 [Example 75] | 300

Tested on: PANMI (wild proso millet)
Assay: Pre-emergence herbicidal activity, warm season
Type: in vivo, Panicum miliaceum
Conditions: GR80 = lowest tested rate (300, 100, 30, 10 g/ha) with 80% or greater inhibition; approx. 14 days after treating; 30/21° C.
Summary of the method: as §6

Row | Compound | Pre-emergence activity (GR80) PANMI [g/ha]
25 | CCCN(CC)C(=O)n1cnc(S(=O)(=O)C(F)(F)C(F)(F)Br)n1 [Example 75] | 100

Tested on: GALAP (catchweed bedstraw)
Assay: Pre-emergence herbicidal activity, cool season
Type: in vivo, Galium aparine
Conditions: lowest tested rate with 80% or greater inhibition; rates 300, 100, 30, 10 g/ha; about 14 days
Summary of the method: as §1

Row | Compound | Pre-emergence activity GR80, GALAP
26 | CON(C)C(=O)n1cnc(S(=O)(=O)C(F)F)n1 [Example 34] | [empty]
27 | CCCN(CC)C(=O)n1cnc(S(=O)(=O)C(F)(F)C(F)(F)Br)n1 [Example 75] | 300 g/ha

Tested on: BROTE (downy brome)
Assay: Pre-emergence herbicidal activity, cool season
Type: in vivo, Bromus tectorum
Conditions: GR80 = lowest tested rate (300, 100, 30, 10 g/ha) with 80% or greater inhibition; approx. 14 days after treating; 18/13° C.
Procedure: as §2, §3, §4, §5

Row | Compound | Pre-emergence activity (GR80) BROTE [g/ha]
28 | CON(C)C(=O)n1cnc(S(=O)(=O)C(F)F)n1 [Example 34] | 300
29 | CCCN(CC)C(=O)n1cnc(S(=O)(=O)C(F)(F)C(F)(F)Br)n1 [Example 75] | 300
